How the values were obtained:
[1] = tested on: virgin females of Heliothis virescens; assay: Pheromonotropic assay (injection); type: in vivo
Method: Pupae of H. virescens were obtained from a laboratory colony maintained at the Insect Attractants, Behavior and Basic Biology Research Laboratory, USDA-ARS, in Gainesville, Fla. The pupae were separated by sex and the males were discarded. After eclosion, the females were held in 4-1 cages and provided with cotton wicks soaked with 5% sucrose solution. The insects were held at 25°±2° C, 65±3% relative humidity with a 12:12 (L:D) photoperiod. Virgin females were used for bioassays 2 and 3 days after eclosion during the 7th-8th hour of the photophase when endogenous levels of pheromone are very low (Abernathy, 1995, Regulation of sex pheromone production and oviposition in virgin females of noctuid moths, doctoral dissertation, University of Florida, Gainesville, Fla., pp. 1-107).
Pheromone biosynthesis neuropeptide from H. zea (Hez--PBAN) and the carboranyl pseudopeptide Cbe--Thr--Pro--Arg--Leu--NH2 were dissolved in physiological saline (Christensen et al., 1991, Proc. Natl. Acad. Sci. USA, 88:4971-4975). Female H. virescens insects were injected through the side of the third abdominal segment using a 26-ga needle with 20 μl of the above solutions. Each female received a dose of 0.01, 0.03, 0.1, 0.3, 1, 3, 10, 30, 100 or 300 pmol. After 1 h of incubation, the terminal abdominal segments, which contain the pheromone gland, were excised and placed in 10 μl of hexane containing 10 ng each of internal standards (octadecane and nonadecane) used for quantitation and calculation of relative retention indices. The pheromone gland extracts were analyzed for the amount of (Z)-11-hexadecenal (Z11-16:AL), the major sex pheromone component of H. virescens (Klun et al., 1980, J. Chem. Ecol., 6:165-175) by capillary gas chromatography. Hewlett-Packard 5890 gas chromatographs were equipped with splitless injectors, flame ionization detectors, and 30 m×0.25 mm (i.d.) fused silica "SPB 10" (polar) or "SPB1" (apolar) columns (Supelco). Conditions of chromatography were as follows: initial temperature=60° C.; injector operated in the splitless mode for 0.5 min; oven temperature increased by 30° C./min after 1 min; final temperature=190° C. ("SPB10") or 200° C. ("SPB1"); helium carrier gas at a linear flow velocity of 18 cm/s. A Nelson Analytical 3000° acquisition system (Cupertino, Calif.) was used to collect and analyze the data (Teal et al., 1989, Proc. Natl. Acad. Sci. USA, 86:2488-2492).
After the dose response of Hez--PBAN was completed, the […] dose was chosen to use for comparison with the carboranyl pseudopeptide assayed here. Insects were also injected with saline alone as a control. The pseudopeptide was prepared by dilution with saline as described above. Based on the dose-response for the activity of Hez--PBAN, […] were chosen to assess the pheromonotropic activity of the carboranyl pseudopeptide. Females were injected with 20 μl containing 0.01, 0.03, 0.1, 0.3, 1, 3, 10, 30, 100, or 300 pmol. Each bioassay consisted of one dose of several different peptides along with saline and Hez--PBAN controls. The amount of pheromone present in extracts of the pheromone glands of females from each group was compared with that produced by females injected with 5 pmol of Hez--PBAN during that particular bioassay. After all the bioassays were completed, the amount of pheromone produced by each insect was calculated as a percentage of the amount of pheromone produced by females treated with Hez--PBAN. Data were analyzed using one-way ANOVA and t-test with "STATVIEW" software. Variability was reported as SEM.
The pheromonotropic activity of Hez--PBAN, Lom--MT--II and [6--Pha--Ala^0 ]Lom--MT--II was first determined by a series of injection bioassays. Peptides were dissolved in physiological saline (Christensen et al., ibid) and diluted to concentrations of 0.003, 0.01, 0.03, 0.1, 0.3, 1.0, 3.0 and 10.0 pmol/μl. Insects were injected through the side of the 3rd abdominal segment using a 26 ga. needle with 20 μl of the above solutions. […]

[2] = tested on: fleshfly larvae; assay: Acceleration of pupariation after injection into fleshfly larvae; type: in vivo, Sarcophaga bullata; conditions: injected into fleshfly larvae

For Cbe--Thr--Pro--Arg--Leu--NH2, the “potency relative to 33-membered HezPBAN, injection” value ([1]; H. virescens) was 10 fold, the “ED50, pheromone production following injection” value ([1]; H. virescens females, FIG. 3) was 0.1 pmoles/female and the “ED50, pheromone production via injection” value ([1]; H. virescens females, glands extracted 60 min after injection) was 0.1 pmol. The “dose eliciting a 100% response, injection” value ([1]; H. virescens, FIG. 3) was 2.5 pmoles/female, the “potency relative to 33-membered HezPBAN, injection” value ([1]; H. virescens, listed as carboranyl analog) was “equipotent” and the “Maximal Response via injection (dose)” value ([1]; maximal pheromone production relative to 5 pmoles PBAN via injection) was 2.5 pmol. The concentration accelerating pupariation [2] was at most 0.25 picomoles/insect.

Reference: patent publication US5795857A, “Mimetic insect pyrokinin analogs for insect control” (The United States of America as represented by the …, priority 1996, dated 1998)
